Where two headings read alike, the source gives them in different places.
Experiments:
OVCAR8 cells = experiment: Cisplatin dose-response, cell viability by MTT assay; assay type: cell-based, human; details: 24 hours
Description: A majority of HGSOC patients treated with platinum-based (i.e., carboplatin) chemotherapy develop chemoresistance. […] To test this hypothesis, CBX2 knockdown OVCAR4, PEO1, and OVCAR8 cells were grown in an adherent setting for 24 h and subsequently treated with increasing doses of cisplatin. […] The panels in FIG. 7A and FIG. 7B are as follows. Panel A: shControl (shCtrl), shCBX2 #1 and #2 OVCAR8 cells grown in adherent were dosed with cisplatin for 24 hours. Treated cells were utilized for a MTT assay to assess cell viability. Panel B: Same as A, but adherent PEO1 cells were dosed with cisplatin for 48 hours. Panel C: Same as A, but OVCAR8 cells in suspension were dosed with cisplatin for 24 hours. Panel D: Same as A, but PEO1 cells in suspension were dosed with cisplatin for 48 hours. IC50 values were calculated with Prism and are indicated.

OVCAR4 cells [1] = experiment: Annexin V/PI apoptosis assay; assay type: cell-based, human; details: OVCAR4 adherent, loss of CBX2 (shCBX2 #1 or #2) vs shControl, cisplatin 10 μM
Description: (§1) Panels of FIG. 6 are as follows. Panel A: OVCAR4 shControl, shCBX2 #1, and shCBX2 #2 in 96-well plates treated over 24 h with increasing dose of cisplatin (0.5-100 μM). Percent cell viability was measured using the MTT assay and the half maximal inhibitory concentration (IC50) calculated. Panel B: Similarly to (Panel A), OVCAR4 knockdown cell lines were grown in low adherent 96-well plates (forced suspension) and treated with increasing doses of cisplatin over 24 h and percent cell viability measured with MTT for calculation of IC50. Panel C: Annexin/V apoptosis assay of OVCAR4 cells grown in adherent setting with shControl, shCBX2 #1 or #2 treated with cisplatin (10 μM) compared to untreated control. Percent Annexin positive cells are shown. Statistical test=ANOVA. Error bars=S.E.M.
Following 72 h of growth in adherent and suspended states, OVCAR4 and PEO1 cells were harvested and washed in PBS. Alexa Fluor™ 488 Conjugated AnnexinV and Propidium Iodide (PI) (Thermo Fisher Scientific) staining were performed following manufacturer's protocol.

OVCAR4 cells [2] = experiment: Cisplatin dose-response, cell viability by MTT assay; assay type: cell-based, human; details: for IC50: 24 h, MTT
Description: (§2) A majority of HGSOC patients treated with platinum-based (i.e., carboplatin) chemotherapy develop chemoresistance. […] To test this hypothesis, CBX2 knockdown OVCAR4, PEO1, and OVCAR8 cells were grown in an adherent setting for 24 h and subsequently treated with increasing doses of cisplatin.
CBX2 knockdown OVCAR4, PEO1, and OVCAR8 cells were grown in suspension and dosed with cisplatin. […] Although not as robust as OVCAR4 cells, CBX2knockdown also sensitized OVCAR8 and PEO1 cells to cisplatin (FIG. 7B Panels C-D). […] In addition, we further confirmed that in OVCAR4, loss of CBX2 lead to increased cisplatin-induced apoptosis measured with Annexin V/PI (FIG. 6 Panel C).
as §1
(§3) PEO1 and OVCAR4 cells were plated in 96-well plates in both adherent (4000 cells per well) and suspension (6000 cells per well) environments, as described above. These cells were treated over 24 h with increasing concentrations of Cisplatin (0.5-100 μM). 1640 RPMI media and media with 0.9% NaCl were used for control and vehicle control, respectively. Cell viability was assessed using the 3-(4,5-dimethylthiazol-2-yl)-5-(3-carboxymethoxyphenyl)-2-(4-sulfophenyl)-2H-tetrazolium (MTT) assay (Promega, Madison, WI). Means of at least five wells are reported and experiments were independently repeated in triplicate. Representative dose-response curves are shown.

OVCAR4 cells [3] = details: cells allowed to recover 72 h following cisplatin treatment; read-out: OVCAR4 cisplatin IC50 reported by Haley et al.; cited from earlier work
PEO1 cells = experiment: Cisplatin dose-response, cell viability by MTT assay; assay type: cell-based, human; details: 48 hours
Description: as §2
The panels in FIG. 7A and FIG. 7B are as follows. Panel A: shControl (shCtrl), shCBX2 #1 and #2 OVCAR8 cells grown in adherent were dosed with cisplatin for 24 hours. Treated cells were utilized for a MTT assay to assess cell viability. Panel B: Same as A, but adherent PEO1 cells were dosed with cisplatin for 48 hours. Panel C: Same as A, but OVCAR8 cells in suspension were dosed with cisplatin for 24 hours. Panel D: Same as A, but PEO1 cells in suspension were dosed with cisplatin for 48 hours. IC50 values were calculated with Prism and are indicated.
as §3, with “Means of at least five wells are reported and experiments were independently repeated in triplicate. Representative dose-response curves are shown.” left out

For `N.N.[Cl][Pt][Cl]` [cisplatin], the “chemosensitivity to cisplatin, shCBX2 cell lines vs shControl cells” value (“chemosensitivity … vs shControl cells” below) (OVCAR8 cells; OVCAR8, adherent) was “significantly more chemosensitive”, the “sensitivity to cisplatin after CBX2 knockdown” value (OVCAR8 cells; OVCAR8, suspension) was “sensitized” and the “cisplatin-induced apoptosis measured with Annexin V/PI” value (OVCAR4 cells [1]) was “increased”. For the same compound, the “chemosensitivity … vs shControl cells” value (OVCAR4 cells [2]; OVCAR4, adherent) was “significantly more chemosensitive”, the “increase in the cisplatin IC50 in suspension cells compared to the adherent cells” value (OVCAR4 cells [2]; OVCAR4 cells) was 4.47 fold and the IC50 (OVCAR4 cells [2]; OVCAR4 control with intact CBX2, adherent) was 38.7 µM. The IC50 (OVCAR4 cells [2]; OVCAR4 control with intact CBX2, suspension) was 170 µM, the IC50 (OVCAR4 cells [2]; OVCAR4 shCBX2 #1 knockdown cells, adherent) was 12.7 µM and the IC50 (OVCAR4 cells [2]; OVCAR4 shCBX2 #1 knockdown cells, suspension) was 7.19 µM. The IC50 (OVCAR4 cells [2]; OVCAR4 shCBX2 #2 knockdown cells, adherent) was 15.4 µM, the IC50 (OVCAR4 cells [2]; OVCAR4 shCBX2 #2 knockdown cells, suspension) was 18.1 µM and the IC50 (OVCAR4 cells [3]) was ~6 µM. The “chemosensitivity … vs shControl cells” value (PEO1 cells; PEO1, adherent) was “significantly more chemosensitive” and the “sensitivity to cisplatin after CBX2 knockdown” value (PEO1 cells; PEO1, suspension) was “sensitized”.

— patent US20250199004A1, “METHODS OF EVALUATING TREATMENT OUTCOME IN HIGH GRADE SEROUS OVARIAN CANCER” (THE REGENTS OF THE UNIVERSITY OF COLORADO, A BODY CORPORATE, priority 2018, published 2025)
